Reference: the NIST ThermoML archive (doi:10.1021/je034102r)
± gives the expanded uncertainty stated by the source.

Assay: molar heat capacity at saturation pressure
Conditions: Small (less than 1 g) adiabatic calorimetry

CCCCn1cc[n+](C)c1.F[P-](F)(F)(F)(F)F [1-butyl-3-methylimidazolium hexafluorophosphate]
Conditions | molar heat capacity [J/K/mol]
110.13 K, Crystal | 163.1 ± 0.92
112.28 K, Glass | 180.3 ± 1
112.77 K, Crystal | 165.8 ± 0.92
114.54 K, Glass | 183.2 ± 1
115.37 K, Crystal | 168.1 ± 0.92
116.84 K, Glass | 185.7 ± 1
117.92 K, Crystal | 170.7 ± 0.92
119.11 K, Glass | 188.2 ± 1
120 K, Crystal | 172.9 ± 0.92
120 K, Glass | 189.1 ± 1
120.6 K, Crystal | 173.4 ± 0.92
121.35 K, Glass | 190.5 ± 1
123.41 K, Crystal | 176.3 ± 0.92
123.71 K, Glass | 193.2 ± 1
126.17 K, Crystal | 178.9 ± 1
126.2 K, Glass | 195.8 ± 1.1
128.66 K, Glass | 198.4 ± 1.1
128.89 K, Crystal | 181.8 ± 1
130 K, Crystal | 182.8 ± 0.92
130 K, Glass | 200 ± 1
131.16 K, Glass | 201.3 ± 1.1
131.56 K, Crystal | 184.6 ± 1
133.7 K, Glass | 204.1 ± 1.1
134.28 K, Crystal | 187.2 ± 1
136.2 K, Glass | 207.1 ± 1.1
137.03 K, Crystal | 190.2 ± 1
138.67 K, Glass | 209.8 ± 1.1
139.75 K, Crystal | 193 ± 1
140 K, Crystal | 193.1 ± 1
140 K, Glass | 211 ± 1.1
141.19 K, Glass | 212.4 ± 1.2
142.43 K, Crystal | 195.6 ± 1.1
143.75 K, Glass | 215.3 ± 1.2
145.07 K, Crystal | 198.5 ± 1.1
146.28 K, Glass | 217.9 ± 1.2
147.68 K, Crystal | 201.1 ± 1.1
148.93 K, Glass | 220.9 ± 1.2
150 K, Crystal | 203.7 ± 1
150 K, Glass | 222.2 ± 1.1
150.26 K, Crystal | 204.1 ± 1.1
151.7 K, Glass | 224.2 ± 1.2
152.8 K, Crystal | 206.7 ± 1.1
154.44 K, Glass | 226.9 ± 1.2
155.32 K, Crystal | 209.6 ± 1.1
157.14 K, Glass | 230.1 ± 1.2
157.81 K, Crystal | 212.4 ± 1.2
159.81 K, Glass | 233.2 ± 1.2
160 K, Crystal | 214.6 ± 1.1
160 K, Glass | 233.6 ± 1.2
160.34 K, Crystal | 214.8 ± 1.2
162.53 K, Glass | 236.6 ± 1.2
162.92 K, Crystal | 217.8 ± 1.2
165.29 K, Glass | 239.8 ± 1.2
165.46 K, Crystal | 220.6 ± 1.2
168.02 K, Glass | 243.1 ± 1.2
168.07 K, Crystal | 223.6 ± 1.2
170 K, Crystal | 225.7 ± 1.1
170 K, Glass | 245.7 ± 1.2
170.71 K, Crystal | 226.4 ± 1.2
170.72 K, Glass | 246.4 ± 1.3
173.34 K, Crystal | 229.6 ± 1.2
173.39 K, Glass | 249.7 ± 1.3
175.93 K, Crystal | 232.7 ± 1.2
176.04 K, Glass | 253 ± 1.3
177.26 K, Glass | 254.8 ± 1.3
178.5 K, Crystal | 235.4 ± 1.2
180 K, Crystal | 237.2 ± 1.2
180 K, Glass | 258.1 ± 1.2
180.15 K, Glass | 258.7 ± 1.3
181.04 K, Crystal | 238.3 ± 1.2
183.09 K, Glass | 263.9 ± 1.4
183.56 K, Crystal | 241.2 ± 1.2
186.06 K, Crystal | 244.3 ± 1.2
186.06 K, Glass | 273 ± 1.4
188.53 K, Crystal | 247.2 ± 1.3
188.97 K, Glass | 285 ± 1.5
190 K, Crystal | 248.8 ± 1.2
190 K, Glass | 270.5 ± 1.2
190.6 K, Glass | 271.2 ± 1.2
190.6 K, Liquid | 352.9 ± 1.6
190.98 K, Crystal | 249.9 ± 1.3
191.7 K, Glass | 322.8 ± 1.7
193.42 K, Crystal | 252.8 ± 1.3
194.24 K, Glass | 351 ± 1.8
194.81 K, Crystal | 254.5 ± 1.3
196.8 K, Liquid | 355.5 ± 1.8
197.49 K, Crystal | 257.7 ± 1.3
199.36 K, Liquid | 356.4 ± 1.8
200 K, Crystal | 260.7 ± 1.2
200 K, Liquid | 356.9 ± 1.7
200.29 K, Crystal | 260.8 ± 1.3
201.91 K, Liquid | 357.9 ± 1.8
203.07 K, Crystal | 264.4 ± 1.4
204.58 K, Liquid | 359.1 ± 1.8
205.82 K, Crystal | 267.4 ± 1.4
207.37 K, Liquid | 360.1 ± 1.8
208.72 K, Crystal | 270.5 ± 1.4
210 K, Crystal | 272.2 ± 1.3
210 K, Liquid | 361.4 ± 1.7
210.22 K, Liquid | 361.4 ± 1.8
211.76 K, Crystal | 274.3 ± 1.4
213.13 K, Liquid | 363.4 ± 1.8
214.78 K, Crystal | 277.7 ± 1.4
217.77 K, Crystal | 280.9 ± 1.5
220 K, Crystal | 283.4 ± 1.3
220 K, Liquid | 366.1 ± 1.7
220.73 K, Crystal | 284.4 ± 1.5
223.67 K, Crystal | 287.4 ± 1.5
226.59 K, Crystal | 290.7 ± 1.5
229.55 K, Crystal | 293.6 ± 1.5
230 K, Crystal | 294.2 ± 1.4
230 K, Liquid | 370.9 ± 1.7
232.58 K, Crystal | 297.2 ± 1.6
235.59 K, Crystal | 300.4 ± 1.6
238.56 K, Crystal | 303.6 ± 1.6
238.61 K, Liquid | 375.5 ± 1.9
240 K, Crystal | 305.2 ± 1.4
240 K, Liquid | 376 ± 1.7
240.98 K, Liquid | 376.4 ± 1.9
241.58 K, Crystal | 307.1 ± 1.6
243.49 K, Liquid | 377.7 ± 1.9
244.65 K, Crystal | 310.8 ± 1.6
246 K, Liquid | 379.1 ± 1.9
247.69 K, Crystal | 313.5 ± 1.7
248.49 K, Liquid | 379.9 ± 1.9
250 K, Crystal | 316.7 ± 1.5
250 K, Liquid | 381.1 ± 1.7
250.71 K, Crystal | 316.9 ± 1.7
250.97 K, Liquid | 381.9 ± 2
253.43 K, Liquid | 382.8 ± 2
253.7 K, Crystal | 320.9 ± 1.7
256.03 K, Liquid | 384.1 ± 2
256.67 K, Crystal | 323.9 ± 1.7
258.86 K, Liquid | 386 ± 2
259.68 K, Crystal | 327.4 ± 1.7
260 K, Crystal | 328.2 ± 1.5
260 K, Liquid | 386.5 ± 1.7
261.82 K, Liquid | 387.4 ± 2
262.73 K, Crystal | 331.8 ± 1.7
264.77 K, Liquid | 388.5 ± 2
265.76 K, Crystal | 335.3 ± 1.7
267.7 K, Liquid | 390.6 ± 2
268.75 K, Crystal | 342 ± 1.7
270 K, Crystal | 339.6 ± 1.6
270 K, Liquid | 392.1 ± 1.7
270.75 K, Liquid | 392.9 ± 2
273.92 K, Liquid | 394.4 ± 2
277.07 K, Liquid | 396.2 ± 2
279.27 K, Liquid | 397.3 ± 2
280 K, Crystal | 351 ± 1.6
280 K, Liquid | 397.8 ± 1.8
280.22 K, Liquid | 397.8 ± 2
282.28 K, Liquid | 399.3 ± 2.1
283.51 K, Crystal | 355.1 ± 1.6
283.51 K, Liquid | 399.8 ± 1.8
285.27 K, Liquid | 401.1 ± 2.1
288.25 K, Liquid | 402.9 ± 2.1
290 K, Liquid | 403.8 ± 1.8
290.53 K, Liquid | 404.3 ± 2.1
291.29 K, Liquid | 404.5 ± 2.1
293.21 K, Liquid | 406.2 ± 2.1
294.38 K, Liquid | 406.7 ± 2.1
296.25 K, Liquid | 407.3 ± 2.1
297.45 K, Liquid | 409 ± 2.1
298.15 K, Liquid | 408.7 ± 1.8
299.28 K, Liquid | 409.7 ± 2.1
300 K, Liquid | 409.8 ± 1.8
300.51 K, Liquid | 409.8 ± 2.1
302.31 K, Liquid | 411.6 ± 2.1
303.56 K, Liquid | 411.8 ± 2.1
305.32 K, Liquid | 412.9 ± 2.1
306.66 K, Liquid | 414 ± 2.1
308.31 K, Liquid | 414.6 ± 2.1
309.81 K, Liquid | 416 ± 2.2
310 K, Liquid | 415.9 ± 1.8
311.31 K, Liquid | 416.3 ± 2.2
320 K, Liquid | 422.3 ± 5
340 K, Liquid | 434.7 ± 8.7
360 K, Liquid | 446.2 ± 8.9
380 K, Liquid | 457 ± 9.1
400 K, Liquid | 466.9 ± 9.3
420 K, Liquid | 476 ± 9.6
440 K, Liquid | 484.3 ± 9.7
460 K, Liquid | 491.8 ± 9.8
480 K, Liquid | 498.5 ± 10
500 K, Liquid | 504.4 ± 10
520 K, Liquid | 509.5 ± 10
540 K, Liquid | 513.8 ± 10
550 K, Liquid | 515.6 ± 10
